Converted amounts (≈) assume the structure as drawn. Where two headings read alike, the source gives them in different places.
Columns and labels:
VREf isolates = assay: microbe, parasite or virus in culture
Protocol: (§1) Initial organism identification and susceptibility determination were performed via MALDI-TOF MS (Bruker Daltonics, Billerica, MA, USA) and MicroScan Walkaway (Beckman Coulter, Brea, CA), respectively, in the clinical microbiology laboratory. Pure colonies of the VREf isolates cultured from the CSF on hospital days 33 and 57 and from blood on days 35 and 52 were sub-cultured to BD BBL chocolate II agar slants (Becton, Dickinson and Company, Sparks, MD, USA) and shipped immediately overnight to the research laboratory where all subsequent testing was performed. Identification and resistance marker detection was confirmed via the Verigene Gram-positive blood culture assay (Luminex, Northbrook, IL, USA).
Minimum inhibitory concentrations were determined in triplicate according to CLSI guidelines. Modal MIC values are reported.

VREf = assay: microbe, parasite or virus in culture; assay type: cell-based, Enterococcus faecium; details: for local laboratory susceptibility result: VREf blood isolate of hospital day 22
Protocol: as §1

[1] = human, in vivo; cited from earlier work
[2] = Enterococcus faecium, VREf isolate from CSF, hospital day 33, modal MIC of triplicate, CLSI guidelines
[3] = Enterococcus faecium, VREf isolate from CSF, hospital day 57, modal MIC of triplicate, CLSI guidelines
[4] = Enterococcus faecium, VREf isolate from blood, hospital day 35, modal MIC of triplicate, CLSI guidelines
[5] = Enterococcus faecium, VREf isolate from blood, hospital day 52, modal MIC of triplicate, CLSI guidelines
[6] = VREf isolate from CSF, hospital day 33, CLSI M100-S30 unless footnoted (b: CLSI vancomycin-susceptible E. faecalis; c: FDA E. faecalis; d: EUCAST v.10.0 E. faecium)
[7] = VREf isolate from CSF, hospital day 57, CLSI M100-S30 unless footnoted
[8] = VREf isolate from blood, hospital day 35, CLSI M100-S30 unless footnoted
[9] = VREf isolate from blood, hospital day 52, CLSI M100-S30 unless footnoted
[10] = VREf blood isolate returning after 11 days of daptomycin therapy
[11] = VREf isolate from CSF, hospital day 33, modal MIC of triplicate, CLSI guidelines
[12] = VREf isolate from CSF, hospital day 57, modal MIC of triplicate, CLSI guidelines
[13] = VREf isolate from blood, hospital day 35, modal MIC of triplicate, CLSI guidelines
[14] = VREf isolate from blood, hospital day 52, modal MIC of triplicate, CLSI guidelines

Row | Compound | MIC (VREf isolates; [2]) [µg/mL] | MIC (VREf isolates; [3]) [µg/mL] | MIC (VREf isolates; [4]) [µg/mL] | MIC (VREf isolates; [5]) [µg/mL] | Interpretive Category (VREf isolates; [6]) | Interpretive Category (VREf isolates; [7]) | Interpretive Category (VREf isolates; [8]) | Interpretive Category (VREf isolates; [9]) | MIC (VREf isolates) [µg/mL] | local laboratory susceptibility result (VREf) | susceptibility category (VREf; [10]) | susceptibility category (VREf; first episode of VREf bacteremia, 2.5 months before admission) | MIC (VREf; Enterococcus faecium, VREf blood isolate returning after 11 days of daptomycin therapy, daptomycin by broth microdilution) [µg/mL] | CSF penetration [1] | MIC (VREf isolates; [11]) [µg/mL] | MIC (VREf isolates; [12]) [µg/mL] | MIC (VREf isolates; [13]) [µg/mL] | MIC (VREf isolates; [14]) [µg/mL]
1 | CC1(C)S[C@@H]2[C@H](NC(=O)[C@H](N)c3ccccc3)C(=O)N2[C@H]1C(=O)O [Ampicillin] | ≥ 16 | ≥ 16 | ≥ 16 | ≥ 16 | R | R | R | R | – | – | – | – | – | – | – | – | – | –
2 | CCO/N=C(\C(=O)N[C@@H]1C(=O)N2C(C(=O)[O-])=C(Sc3nc(-c4cc[n+](C)cc4)cs3)CS[C@H]12)c1nsc(N)n1 [Ceftaroline] | ≥ 128 | ≥ 128 | ≥ 128 | ≥ 128 | – | – | – | – | – | – | – | – | – | – | – | – | – | –
3 | CO/N=C(\C(=O)N[C@@H]1C(=O)N2C(C(=O)O)=C(CSc3nc(=O)c(=O)[nH]n3C)CS[C@H]12)c1csc(N)n1 [Ceftriaxone] | ≥ 128 | ≥ 128 | ≥ 128 | ≥ 128 | – | – | – | – | – | – | – | – | – | – | – | – | – | –
4 | O=C(N[C@H](CO)[C@H](O)c1ccc([N+](=O)[O-])cc1)C(Cl)Cl [Chloramphenicol] | ≥ 32 | ≥ 32 | ≥ 32 | ≥ 32 | R | R | R | R | – | – | – | – | – | – | – | – | – | –
5 | CN[C@H]1C(=O)N[C@@H]2Cc3ccc(cc3)Oc3cc4cc(c3O[C@@H]3O[C@H](C(=O)O)[C@@H](O)[C@H](O)[C@H]3NC(=O)CCCCCCCCC(C)C)Oc3ccc(cc3Cl)[C@@H](O)[C@@H]3NC(=O)[C@H](NC(=O)[C@@H]4NC(=O)[C@@H](NC2=O)c2cc(cc(O)c2Cl)Oc2cc1ccc2O)c1ccc(O)c(c1)-c1c(O[C@H]2O[C@H](CO)[C@@H](O)[C@H](O)[C@@H]2O)cc(O)cc1[C@@H](C(=O)NCCCN(C)C)NC3=O [Dalbavancin] | – | – | – | – | – | – | – | – | ≥4 | – | – | – | – | – | – | – | – | –
6 | CCCCCCCCCC(=O)N[C@@H](Cc1c[nH]c2ccccc12)C(=O)N[C@H](CC(N)=O)C(=O)N[C@@H](CC(=O)O)C(=O)N[C@@H]1C(=O)NCC(=O)N[C@@H](CCCN)C(=O)N[C@@H](CC(=O)O)C(=O)N[C@H](C)C(=O)N[C@@H](CC(=O)O)C(=O)NCC(=O)N[C@H](CO)C(=O)N[C@@H]([C@H](C)CC(=O)O)C(=O)N[C@@H](CC(=O)c2ccccc2N)C(=O)O[C@@H]1C [Daptomycin] | – | – | – | – | R | R | R | R | ≥8 | resistance | resistant | susceptible dose-dependent | – | – | – | – | – | –
7 | Nc1nc(-n2cc(C(=O)O)c(=O)c3cc(F)c(N4CC(O)C4)c(Cl)c32)c(F)cc1F [Delafloxacin] | > 8 | > 8 | > 8 | > 8 | R | R | R | R | – | – | – | – | – | – | – | – | – | –
8 | CC[C@H]1OC(=O)[C@H](C)[C@@H](O[C@H]2C[C@@](C)(OC)[C@@H](O)[C@H](C)O2)[C@H](C)[C@@H](O[C@@H]2O[C@H](C)C[C@H](N(C)C)[C@H]2O)[C@](C)(O)C[C@@H](C)C(=O)[C@H](C)[C@@H](O)[C@]1(C)O [Erythromycin] | ≥ 8 | ≥ 8 | ≥ 8 | ≥ 8 | R | R | R | R | – | – | – | – | – | – | – | – | – | –
9 | C[C@@H]1O[C@@H]1P(=O)(O)O [Fosfomycin] | 64 | 64 | 64 | 64 | S | S | S | S | – | – | – | – | – | – | – | – | – | –
10 | CNC(C)C1CCC(N)C(OC2C(N)CC(N)C(OC3OCC(C)(O)C(NC)C3O)C2O)O1 (stereo not drawn) [Gentamicin] | ≤ 500 | ≤ 500 | ≤ 500 | ≤ 500 | S | S | S | S | – | – | – | – | – | – | – | – | – | –
11 | C=C[C@]1(C)C[C@@H](OC(=O)CS[C@@H]2CC[C@@H](N)C[C@H]2O)[C@]2(C)[C@H](C)CC[C@]3(CCC(=O)[C@H]32)[C@@H](C)[C@@H]1O [Lefamulin] | 1 | 2 | 1 | 2 | – | – | – | – | – | – | – | – | – | – | – | – | – | –
12 | C[C@H]1COc2c(N3CCN(C)CC3)c(F)cc3c(=O)c(C(=O)O)cn1c23 [Levofloxacin] | ≥ 8 | ≥ 8 | ≥ 8 | ≥ 8 | R | R | R | R | – | – | – | – | – | – | – | – | – | –
13 | CC(=O)NC[C@H]1CN(c2ccc(N3CCOCC3)c(F)c2)C(=O)O1 [Linezolid] | 16 | 16 | 16 | 16 | R | R | R | R | – | resistance | susceptible | – | 2 (≈ 5.93 µM) | 66–85% | – | – | – | –
14 | O=C1CN(/N=C/c2ccc([N+](=O)[O-])o2)C(=O)N1 [Nitrofurantoin] | ≥ 128 | ≥ 128 | ≥ 128 | ≥ 128 | R | R | R | R | – | – | – | – | – | – | – | – | – | –
15 | CN(C)c1cc(CNCC(C)(C)C)c(O)c2c1C[C@H]1C[C@H]3[C@H](N(C)C)C(O)=C(C(N)=O)C(=O)[C@@]3(O)C(O)=C1C2=O [Omadacycline] | 1 | 1 | 1 | 1 | R | R | R | R | – | – | – | – | – | – | – | – | – | –
16 | CO[C@H]1/C=C/O[C@@]2(C)Oc3c(C)c(O)c4c(O)c(c(/C=N/N5CCN(C)CC5)c(O)c4c3C2=O)NC(=O)/C(C)=C\C=C\[C@H](C)[C@H](O)[C@@H](C)[C@@H](O)[C@@H](C)[C@H](OC(C)=O)[C@@H]1C [Rifampin] | ≥ 4 | ≥ 4 | ≥ 4 | ≥ 4 | R | R | R | R | – | – | – | – | – | – | – | – | – | –
17 | CCCCCCCCCCNCCN[C@@]1(C)C[C@H](O[C@H]2[C@H](Oc3c4cc5cc3Oc3ccc(cc3Cl)[C@@H](O)[C@@H](NC(=O)[C@@H](CC(C)C)NC)C(=O)N[C@@H](CC(N)=O)C(=O)N[C@H]5C(=O)N[C@H]3C(=O)N[C@H](C(=O)N[C@H](C(=O)O)c5cc(O)c(CNCP(=O)(O)O)c(O)c5-c5cc3ccc5O)[C@H](O)c3ccc(c(Cl)c3)O4)O[C@H](CO)[C@@H](O)[C@@H]2O)O[C@@H](C)[C@H]1O [Telavancin] | – | – | – | – | – | – | – | – | – | – | – | – | – | – | ≥4 | ≥4 | ≥4 | ≥4
18 | CN(C)[C@@H]1C(O)=C(C(N)=O)C(=O)[C@@]2(O)C(O)=C3C(=O)c4c(O)cccc4[C@@](C)(O)[C@H]3C[C@@H]12 [Tetracycline] | – | – | – | – | R | R | R | R | – | – | – | – | – | – | – | – | – | –
19 | CN[C@H](CC(C)C)C(=O)N[C@H]1C(=O)N[C@@H](CC(N)=O)C(=O)N[C@H]2C(=O)N[C@H]3C(=O)N[C@H](C(=O)N[C@H](C(=O)O)c4cc(O)cc(O)c4-c4cc3ccc4O)[C@H](O)c3ccc(c(Cl)c3)Oc3cc2cc(c3O[C@@H]2O[C@H](CO)[C@@H](O)[C@H](O)[C@H]2O[C@H]2C[C@](C)(N)[C@H](O)[C@H](C)O2)Oc2ccc(cc2Cl)[C@H]1O [Vancomycin] | – | – | – | – | R | R | R | R | – | – | – | – | – | – | ≥256 | ≥256 | ≥256 | ≥256

— publication PMC8482274, “Inadequate Cerebrospinal Fluid Concentrations of Available Salvage Agents Further Impedes the Optimal Treatment of Multidrug-Resistant Enterococcus faecium Meningitis and Bacteremia” (Infectious Disease Reports, 2021)
